Experimental data taken from PubChem BioAssay (NCI).
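Results reflect a 48-hour exposure of cells in 96-well plates to compound at five concentrations. TGI is the concentration that stops growth completely.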

How the values were obtained:
Assay in all cases: NCI tumour cell line growth inhibition, 48 h
MCF7 breast = test system: MCF7 breast
HL-60(TB) leukemia = test system: HL-60(TB) leukemia
CCRF-CEM leukemia = test system: CCRF-CEM leukemia
UACC-62 melanoma = test system: UACC-62 melanoma
MALME-3M melanoma = test system: MALME-3M melanoma
SK-MEL-28 melanoma = test system: SK-MEL-28 melanoma
DMS 114 small cell lung = test system: DMS 114 small cell lung
P388/ADR leukemia = test system: P388/ADR leukemia
MOLT-4 leukemia = test system: MOLT-4 leukemia
COLO 205 colon = test system: COLO 205 colon
RPMI-8226 leukemia = test system: RPMI-8226 leukemia
NCI/ADR-RES ovarian = test system: NCI/ADR-RES ovarian
UO-31 renal = test system: UO-31 renal
RXF 393 renal = test system: RXF 393 renal
SF-295 CNS = test system: SF-295 CNS
HOP-92 NSCLC = test system: HOP-92 NSCLC
KM20L2 colon = test system: KM20L2 colon
LOX IMVI melanoma = test system: LOX IMVI melanoma
OVCAR-5 ovarian = test system: OVCAR-5 ovarian
K-562 leukemia = test system: K-562 leukemia
DMS 273 small cell lung = test system: DMS 273 small cell lung
OVCAR-4 ovarian = test system: OVCAR-4 ovarian
DLD-1 colon = test system: DLD-1 colon
SK-OV-3 ovarian = test system: SK-OV-3 ovarian
HOP-18 NSCLC = test system: HOP-18 NSCLC
IGROV1 ovarian = test system: IGROV1 ovarian
CAKI-1 renal = test system: CAKI-1 renal
OVCAR-8 ovarian = test system: OVCAR-8 ovarian
SNB-78 CNS = test system: SNB-78 CNS
EKVX NSCLC = test system: EKVX NSCLC
SNB-19 CNS = test system: SNB-19 CNS
SW-620 colon = test system: SW-620 colon
NCI-H460 lung = test system: NCI-H460 lung
KM12 colon = test system: KM12 colon
SF-268 CNS = test system: SF-268 CNS
SK-MEL-5 melanoma = test system: SK-MEL-5 melanoma
SN12C renal = test system: SN12C renal
OVCAR-3 ovarian = test system: OVCAR-3 ovarian
P388 leukemia = test system: P388 leukemia
HCT-15 colon = test system: HCT-15 colon
SF-539 CNS = test system: SF-539 CNS
A498 renal = test system: A498 renal
U251 CNS = test system: U251 CNS
HT29 colon = test system: HT29 colon
HCT-116 colon = test system: HCT-116 colon
XF 498 CNS = test system: XF 498 CNS
NCI-H23 lung = test system: NCI-H23 lung
SK-MEL-2 melanoma = test system: SK-MEL-2 melanoma
HOP-62 NSCLC = test system: HOP-62 NSCLC
UACC-257 melanoma = test system: UACC-257 melanoma
A549 NSCLC = test system: A549 NSCLC
SN12K1 renal = test system: SN12K1 renal
HCC-2998 colon = test system: HCC-2998 colon
SNB-75 CNS = test system: SNB-75 CNS
NCI-H226 lung = test system: NCI-H226 lung
NCI-H522 lung = test system: NCI-H522 lung
M19-MEL melanoma = test system: M19-MEL melanoma
TK-10 renal = test system: TK-10 renal
RXF-631 renal = test system: RXF-631 renal
ACHN renal = test system: ACHN renal
LXFL 529 NSCLC = test system: LXFL 529 NSCLC
SR leukemia = test system: SR leukemia
M14 melanoma = test system: M14 melanoma
786-0 renal = test system: 786-0 renal

Measured: TGI

C=CCC(O[Si](C)(C)C(C)(C)C)c1cc(O[Si](C)(C)C(C)(C)C)ccc1OC (stereo not drawn)
86.6 µM: HOP-92 NSCLC
> 96.4 µM: SK-OV-3 ovarian
not listed: NCI-H522 lung | M19-MEL melanoma | TK-10 renal | RXF-631 renal | ACHN renal | LXFL 529 NSCLC | SR leukemia | M14 melanoma | 786-0 renal
> 100 µM: all other assays above

CC(=O)C(=Cc1cn(C)c(=O)n(C)c1=O)C(C)=O
231 µM: NCI-H460 lung
194 µM: NCI-H23 lung
235 µM: OVCAR-5 ovarian
209 µM: SK-MEL-28 melanoma | SF-539 CNS
290 µM: A498 renal
188 µM: HCT-116 colon
8.16 µM: HOP-92 NSCLC
240 µM: P388 leukemia | SNB-75 CNS
294 µM: CCRF-CEM leukemia
148 µM: UACC-62 melanoma | RXF 393 renal
382 µM: MOLT-4 leukemia
414 µM: SNB-19 CNS
201 µM: MALME-3M melanoma
171 µM: LOX IMVI melanoma
327 µM: SK-OV-3 ovarian
264 µM: HCC-2998 colon
284 µM: RPMI-8226 leukemia
189 µM: COLO 205 colon | KM12 colon
177 µM: UACC-257 melanoma
175 µM: UO-31 renal
392 µM: P388/ADR leukemia
222 µM: DLD-1 colon
271 µM: HL-60(TB) leukemia
254 µM: SF-295 CNS
324 µM: OVCAR-8 ovarian
600 µM: SNB-78 CNS
218 µM: HCT-15 colon
323 µM: EKVX NSCLC
565 µM: A549 NSCLC
216 µM: SN12C renal
470 µM: IGROV1 ovarian
286 µM: NCI/ADR-RES ovarian
228 µM: SN12K1 renal
224 µM: CAKI-1 renal
176 µM: SK-MEL-5 melanoma
625 µM: MCF7 breast
227 µM: DMS 114 small cell lung
230 µM: KM20L2 colon
526 µM: SF-268 CNS
273 µM: M19-MEL melanoma | OVCAR-4 ovarian
67.1 µM: NCI-H522 lung
223 µM: U251 CNS
278 µM: HT29 colon
255 µM: SK-MEL-2 melanoma
465 µM: K-562 leukemia
78.1 µM: XF 498 CNS
456 µM: HOP-18 NSCLC
400 µM: HOP-62 NSCLC
225 µM: DMS 273 small cell lung
299 µM: OVCAR-3 ovarian
302 µM: SW-620 colon
293 µM: NCI-H226 lung

O=C(CC1=Nc2nnc(CCCCCCCc3nnc4n3C(=O)C(CC(=O)c3ccc5ccccc5c3)=N4)n2C1=O)c1ccc2ccccc2c1
not listed: MCF7 breast | P388/ADR leukemia | NCI/ADR-RES ovarian | SK-MEL-5 melanoma | P388 leukemia | A498 renal | SN12K1 renal
> 100 µM: all other assays above

Cc1cc(Cl)ccc1NC(=O)CCCC(=O)C1C/C(=N/O)CC/C1=N\O (stereo not drawn)
not listed: MCF7 breast | P388/ADR leukemia | NCI/ADR-RES ovarian | RXF 393 renal | LOX IMVI melanoma | P388 leukemia | SN12K1 renal | SR leukemia
> 100 µM: all other assays above

O=C1NC(O)n2c(=O)[nH]c(=O)n21 (stereo not drawn)
not listed: MCF7 breast | MALME-3M melanoma | DMS 114 small cell lung | P388/ADR leukemia | NCI/ADR-RES ovarian | P388 leukemia | A498 renal | SN12K1 renal
> 100 µM: all other assays above

CC(=O)Nc1ccc(C2CC(c3ccc([N+](=O)[O-])cc3)=Nc3ccccc3S2)cc1 (stereo not drawn)
27.6 µM: M14 melanoma
41.5 µM: OVCAR-5 ovarian
35.4 µM: OVCAR-8 ovarian
32.9 µM: SK-MEL-2 melanoma
33.5 µM: SF-539 CNS
49.7 µM: HL-60(TB) leukemia
42 µM: K-562 leukemia
32.3 µM: LOX IMVI melanoma | SW-620 colon
35.1 µM: MALME-3M melanoma
67.2 µM: IGROV1 ovarian
30.6 µM: KM12 colon
78.2 µM: HOP-18 NSCLC
27.8 µM: UO-31 renal
32.1 µM: UACC-62 melanoma | ACHN renal
61.9 µM: SR leukemia
56 µM: CCRF-CEM leukemia | A549 NSCLC
29.8 µM: U251 CNS
50.8 µM: HOP-62 NSCLC
33 µM: SN12C renal
32.4 µM: DLD-1 colon
35 µM: SF-295 CNS
25.1 µM: HCT-116 colon
44.4 µM: TK-10 renal
62.4 µM: SNB-19 CNS
> 100 µM: COLO 205 colon | SNB-78 CNS | EKVX NSCLC | SNB-75 CNS
41.7 µM: LXFL 529 NSCLC
47.9 µM: KM20L2 colon
45.6 µM: M19-MEL melanoma
27 µM: XF 498 CNS
71.4 µM: DMS 273 small cell lung
37.2 µM: HCT-15 colon
39.6 µM: MOLT-4 leukemia
42.2 µM: OVCAR-4 ovarian
31.1 µM: 786-0 renal
67.4 µM: OVCAR-3 ovarian
34.3 µM: NCI-H460 lung
70 µM: RXF-631 renal
77.9 µM: SF-268 CNS
33.3 µM: A498 renal
77.7 µM: CAKI-1 renal
28.7 µM: HT29 colon
87.8 µM: SK-OV-3 ovarian
38.4 µM: SK-MEL-28 melanoma
29.2 µM: UACC-257 melanoma
86.3 µM: NCI-H226 lung
34.9 µM: RXF 393 renal
